Species: Rattus norvegicus
Test: Open TG-GATES - Regimen: Single
Assay type: toxicity, organism-based, Sprague-Dawley
Design: regimen Single, gender Male, age 6 weeks
Conditions: in vivo, po, 0 mg/kg, route gavage, dose level Control; for APTT / Bas / Eos / Fbg / Hb / Ht / Lym / MCH / MCHC / MCV / Mono / Neu / PT / Plat / RBC / Ret / WBC: tissue Blood; for KIDNEY_L / KIDNEY_R / KIDNEY_TOTAL: tissue Kidney; for LIVER: tissue Liver; for A/G / ALP / ALT / AST / BUN / CRE / Ca / Cl / DBIL / GLC / IP / K / LDH / Na / PL / RALB / TBIL / TC / TG / TP / gamma-GTP: tissue Plasma

Compound: CN1C(=O)OC(C)(C)C1=O [TRIMETHADIONE]
- TERMINAL_BW (3 h): 205.3 g
- APTT (3 h): 17.8 s
- Bas (3 h): 0.2%
- Eos (3 h): 0.8%
- Fbg (3 h): 261 mg/dL
- Hb (3 h): 13.4 g/dL
- Ht (3 h): 40.1%
- Lym (3 h): 79.8%
- MCH (3 h): 21.8 pg
- MCHC (3 h): 33.5%
- MCV (3 h): 65.1 fL
- Mono (3 h): 3%
- Neu (3 h): 16%
- PT (3 h): 13.8 s
- Plat (3 h): 125.1 x10_4/uL
- RBC (3 h): 616.4 x10_4/ul
- Ret (3 h): 8.2%
- WBC (3 h): 86.1 x10_2/uL
- KIDNEY_L (3 h): 1 g
- KIDNEY_R (3 h): 0.9 g
- KIDNEY_TOTAL (3 h): 1.9 g
- LIVER (3 h): 9 g
- A/G (3 h): 0.9
- ALP (3 h): 1845.4 IU/L
- ALT (3 h): 43.8 IU/L
- AST (3 h): 85 IU/L
- BUN (3 h): 9.6 mg/dL
- CRE (3 h): 0.2 mg/dL
- Ca (3 h): 10.6 mg/dL
- Cl (3 h): 107.4 meq/L
- DBIL (3 h): 0.006 mg/dL
- GLC (3 h): 181.4 mg/dL
- IP (3 h): 8.9 mg/dL
- K (3 h): 4.2 meq/L
- LDH (3 h): 152 IU/L
- Na (3 h): 140.6 meq/L
- PL (3 h): 133.8 mg/dL
- RALB (3 h): 2.5 g/dL
- TBIL (3 h): 0.07 mg/dL
- TC (3 h): 72.2 mg/dL
- TG (3 h): 42.6 mg/dL
- TP (3 h): 5.3 g/dL
- gamma-GTP (3 h): 1.2 IU/L
- TERMINAL_BW (6 h): 205.6 g
- APTT (6 h): 18.9 s
- Bas (6 h): 0%
- Eos (6 h): 1%
- Fbg (6 h): 284.2 mg/dL
- Hb (6 h): 13.1 g/dL
- Ht (6 h): 39.6%
- Lym (6 h): 77.4%
- MCH (6 h): 21.4 pg
- MCHC (6 h): 33.2%
- MCV (6 h): 64.4 fL
- Mono (6 h): 2.4%
- Neu (6 h): 19%
- PT (6 h): 13.8 s
- Plat (6 h): 122.3 x10_4/uL
- RBC (6 h): 615.2 x10_4/ul
- Ret (6 h): 8.7%
- WBC (6 h): 78 x10_2/uL
- KIDNEY_L (6 h): 0.9 g
- KIDNEY_R (6 h): 0.9 g
- KIDNEY_TOTAL (6 h): 1.9 g
- LIVER (6 h): 8.6 g
- A/G (6 h): 0.9
- ALP (6 h): 1304.6 IU/L
- ALT (6 h): 34.4 IU/L
- AST (6 h): 72.2 IU/L
- BUN (6 h): 9 mg/dL
- CRE (6 h): 0.2 mg/dL
- Ca (6 h): 10.5 mg/dL
- Cl (6 h): 108.2 meq/L
- DBIL (6 h): 0.002 mg/dL
- GLC (6 h): 176.4 mg/dL
- IP (6 h): 8.9 mg/dL
- K (6 h): 4.2 meq/L
- LDH (6 h): 109.8 IU/L
- Na (6 h): 140.6 meq/L
- PL (6 h): 145.4 mg/dL
- RALB (6 h): 2.5 g/dL
- TBIL (6 h): 0.064 mg/dL
- TC (6 h): 83 mg/dL
- TG (6 h): 49.6 mg/dL
- TP (6 h): 5.4 g/dL
- gamma-GTP (6 h): 1.4 IU/L
- TERMINAL_BW (9 h): 205.5 g
- APTT (9 h): 19.5 s
- Bas (9 h): 0%
- Eos (9 h): 0.8%
- Fbg (9 h): 276.8 mg/dL
- Hb (9 h): 13.5 g/dL
- Ht (9 h): 40.8%
- Lym (9 h): 75.2%
- MCH (9 h): 20.9 pg
- MCHC (9 h): 33%
- MCV (9 h): 63.4 fL
- Mono (9 h): 2.2%
- Neu (9 h): 21.4%
- PT (9 h): 13.7 s
- Plat (9 h): 114.8 x10_4/uL
- RBC (9 h): 642.8 x10_4/ul
- Ret (9 h): 7.6%
- WBC (9 h): 82.3 x10_2/uL
- KIDNEY_L (9 h): 0.9 g
- KIDNEY_R (9 h): 0.9 g
- KIDNEY_TOTAL (9 h): 1.7 g
- LIVER (9 h): 7.9 g
- A/G (9 h): 0.9
- ALP (9 h): 1637 IU/L
- ALT (9 h): 38 IU/L
- AST (9 h): 77 IU/L
- BUN (9 h): 9.6 mg/dL
- CRE (9 h): 0.2 mg/dL
- Ca (9 h): 10.5 mg/dL
- Cl (9 h): 108 meq/L
- DBIL (9 h): 0.002 mg/dL
- GLC (9 h): 176.6 mg/dL
- IP (9 h): 9.7 mg/dL
- K (9 h): 3.9 meq/L
- LDH (9 h): 76.4 IU/L
- Na (9 h): 141.4 meq/L
- PL (9 h): 133.6 mg/dL
- RALB (9 h): 2.5 g/dL
- TBIL (9 h): 0.064 mg/dL
- TC (9 h): 72.8 mg/dL
- TG (9 h): 31.2 mg/dL
- TP (9 h): 5.4 g/dL
- gamma-GTP (9 h): 1.2 IU/L
- TERMINAL_BW (24 h): 223.7 g
- APTT (24 h): 17.1 s
- Bas (24 h): 0%
- Eos (24 h): 1%
- Fbg (24 h): 254 mg/dL
- Hb (24 h): 13.1 g/dL
- Ht (24 h): 39.5%
- Lym (24 h): 77.2%
- MCH (24 h): 21.8 pg
- MCHC (24 h): 33%
- MCV (24 h): 66.1 fL
- Mono (24 h): 3%
- Neu (24 h): 18.2%
- PT (24 h): 13.3 s
- Plat (24 h): 113.7 x10_4/uL
- RBC (24 h): 598 x10_4/ul
- Ret (24 h): 7.3%
- WBC (24 h): 99.1 x10_2/uL
- KIDNEY_L (24 h): 1 g
- KIDNEY_R (24 h): 0.9 g
- KIDNEY_TOTAL (24 h): 1.9 g
- LIVER (24 h): 10.4 g
- A/G (24 h): 0.9
- ALP (24 h): 1802.2 IU/L
- ALT (24 h): 47.2 IU/L
- AST (24 h): 74.8 IU/L
- BUN (24 h): 15 mg/dL
- CRE (24 h): 0.2 mg/dL
- Ca (24 h): 10.9 mg/dL
- Cl (24 h): 104.8 meq/L
- DBIL (24 h): 0.01 mg/dL
- GLC (24 h): 165.4 mg/dL
- IP (24 h): 7.8 mg/dL
- K (24 h): 4 meq/L
- LDH (24 h): 82 IU/L
- Na (24 h): 142.8 meq/L
- PL (24 h): 161 mg/dL
- RALB (24 h): 2.6 g/dL
- TBIL (24 h): 0.056 mg/dL
- TC (24 h): 85.6 mg/dL
- TG (24 h): 92.2 mg/dL
- TP (24 h): 5.6 g/dL
- gamma-GTP (24 h): 1 IU/L

Source: ChEMBL document CHEMBL3885861, “Open TG-GATES”
